Assay results published in patent US8278480B2, “Salts, aqueous liquid compositions containing salts of S-(+)-abscisic acid and methods of their preparation” (Valent BioSciences Corporation, priority 2008, dated 2012).
Several values for one entry are separate records, joined by “and”; a condition that tells them apart may be missing. Identical values can stand only once.

Key:
Assay type in all cases: in vivo, Tomato (variety: Rutgers)
[1] = test system: tomato leaf transpiration; experiment: Tomato leaf transpiration inhibition after foliar spray (LI-1600 porometer); details: for Transpiration rate (% of control), 1 day after treatment: day 1; for Transpiration rate (% of control), 2 days after treatment: day 2; for Transpiration rate (% of control), 3 days after treatment: day 3; for Transpiration rate (% of control), 4 days after treatment: day 4; for Transpiration rate (% of control), 7 days after treatment: day 7; for ABA dose to achieve 50% inhibition of transpiration: from linear regression of 3-day average transpiration rate on log dose
Protocol: (§1) Preparation of plant specimens for use in the treatment studies of the EXAMPLES that follow was carried out as follows. Tomato (variety: Rutgers) seeds were sown in an 18-cell flat filled with Promix PGX (available from Premier Horticulture Inc., Quakertown Pa.) and grown for 3 weeks to allow for germination and initial growth. Plants were then transplanted into pots (18 cm in diameter and 18 cm in height), filled with Promix BX (available from Premier Horticulture Inc., Quakertown Pa.), and grown for one or two more weeks before treatment, depending on temperature and available light. Plants received daily irrigation and weekly fertilizer (1 g/L all purpose fertilizer 20-20-20, available from The Scotts Company, Marysville, Ohio).
(§2) All treatment solutions were made up with distilled water. The (S)-(+)-abscisic acid (95% active ingredient) is available from Lomon BioTechnology Co., Ltd. (Shichuan, China). The prior art aqueous solution composition of the ammonium salt of (S)-(+)-abscisic acid as prepared in Example 11 above was used as a positive treatment control for most of the studies.
(§3) All experiments were conducted using a randomized complete block experimental design. Solutions of (S)-(+)-abscisic acid and blank treatments (plain water) were applied by spray to the aerial parts of the tomato plants at the rate of 24 mL per 6 plants. Plants were then placed in a transparent chamber with humidity controlled within the range of 40 to 60% relative humidity. Leaf transpiration rates were measured at 1, 2, 3, 4 and 7 days after treatment. Measurements were conducted using a LI-1600 Steady State Porometer (LI-Cor, Lincoln, Nebr.). Each day the transpiration rate of the plants of each treatment group was normalized to a percentage of the transpiration rate of untreated plants (plants sprayed with water only) in order to control for day-to-day variability in plant status caused by changes of environmental conditions such as light intensity and temperature. Data for each plant was also averaged over a 3-day period to balance the short term and long term effect of (S)-(+)-abscisic acid on tomato leaf transpiration as well as to reduce experimental variability.
The regression equation of each (S)-(+)-abscisic acid salt as well as abscisic acid concentrations for 50% inhibition of transpiration were calculated. The relative potency of two ABA salts is the reciprocal of the ratio of (S)-(+)-abscisic acid concentration required for 50% transpiration inhibition for each composition.

tomato plant height = experiment: Tomato plant height 7 days after treatment (growth suppression); details: 250 ppm (1 mg) (S)-(+)-abscisic acid, foliar spray; additives as in label
Protocol: as §1, §2
as §3, with “variability. It is important to note that no phytotoxicity was observed on any of the plants treated with the compositions of the present invention.” for “variability.”
In this experiment, the fresh weights of the aerial parts of the tomato plants and their heights were also measured at the end of the experiment, 7 days after treatments were applied, in order to assess the relative growth suppressing activity of the compositions.

[2] = test system: tomato shoot fresh weight; experiment: Tomato shoot fresh weight 7 days after treatment (growth suppression); details: foliar spray
Protocol: as §1, §2, §3
In this experiment, the fresh weights of the aerial parts of the tomato plants were also measured at the end of the experiment, 7 days after treatments were applied, in order to assess the relative growth suppressing activity of the compositions.

[3] = 462 ppm ChI, no (S)-(+)-abscisic acid
[4] = (S)-(+)-abscisic acid dose 0.3 mg, foliar spray
[5] = (S)-(+)-abscisic acid dose 1 mg, foliar spray
[6] = (S)-(+)-abscisic acid dose 3 mg, foliar spray
[7] = (S)-(+)-abscisic acid dose 10 mg, foliar spray
[8] = foliar spray, 250 ppm (S)-(+)-abscisic acid (1 mg), additives as in label
[9] = reciprocal of ratio of doses for 50% transpiration inhibition
[10] = 332 ppm KI, no (S)-(+)-abscisic acid

| Structure (SMILES) | Transpiration rate (% of control), Average of 3 days after treatment [1, 4] | Transpiration rate (% of control), Average of 3 days after treatment [1, 5] | Transpiration rate (% of control), Average of 3 days after treatment [1, 6] | Transpiration rate (% of control), Average of 3 days after treatment [1, 7] | Transpiration rate (% of control), 7-Day Average [1, 8] | Transpiration rate (% of control), 1 day after treatment [1, 8] | Transpiration rate (% of control), 2 days after treatment [1, 8] | Transpiration rate (% of control), 3 days after treatment [1, 8] | Transpiration rate (% of control), 4 days after treatment [1, 8] | Transpiration rate (% of control), 7 days after treatment [1, 8] | ABA dose to achieve 50% inhibition of transpiration [1] [mg] | other results |
| --- | --- | --- | --- | --- | --- | --- | --- | --- | --- | --- | --- | --- |
| C[N+](C)(C)CCO.[I-] [ChI, choline iodide, reference compound] |  |  |  |  |  |  |  |  |  |  |  | Transpiration rate (% of control), 7-Day Average [1, 3]: 100.6 % of control; Transpiration rate (% of control), 1 day after treatment [1, 3]: 96.4 % of control; Transpiration rate (% of control), 2 days after treatment [1, 3]: 104.2 % of control; Transpiration rate (% of control), 3 days after treatment [1, 3]: 104.5 % of control; Transpiration rate (% of control), 4 days after treatment [1, 3]: 98.9 % of control; Transpiration rate (% of control), 7 days after treatment [1, 3]: 98.9 % of control |
| CC1=CC(=O)CC(C)(C)[C@@]1(O)/C=C/C(C)=C\C(=O)[O-].C[N+](C)(C)C [Example 3, Tetramethylammonium Salt of (S)-(+)-Abscisic Acid] | 79 % of control | 65 % of control | 52 % of control | 38 % of control | 73.7 % of control | 59.1 % of control | 63.6 % of control | 71.9 % of control | 78.6 % of control | 95.4 % of control | 3.59 | Relative potency compared to the trimethylamine salt composition of Comparative Example 13 [1, 9]: 4.6 times |
| CC1=CC(=O)CC(C)(C)[C@@]1(O)/C=C/C(C)=C\C(=O)O.CN(C)C(=N)N(C)C [Example 6, Tetramethylguanidinium Salt of (S)-(+)-Abscisic Acid] | 71 % of control | 61 % of control | 42 % of control | 31 % of control | 70.8 % of control and 76.2 % of control and 78.7 % of control | 51.0 % of control and 51.9 % of control and 47.8 % of control | 61.3 % of control and 64.3 % of control and 69.0 % of control | 71.2 % of control and 75.6 % of control and 84.5 % of control | 79.9 % of control and 89.9 % of control and 93.2 % of control | 90.3 % of control and 99.1 % of control and 99.0 % of control | 1.93 | Plant height (cm) 7 days after treatment (tomato plant height): 30.1 cm |
| CC1=CC(=O)CC(C)(C)[C@@]1(O)/C=C/C(C)=C\C(=O)[O-].[K+] [Example 12, Potassium Salt of (S)-(+)-Abscisic Acid, reference compound] | 76 % of control | 66 % of control | 55 % of control | 44 % of control | 77.0 % of control | 55.0 % of control | 64.9 % of control | 76.9 % of control | 90.9 % of control | 97.3 % of control | 5.28 | Relative potency compared to the ammonium salt composition of Comparative Example 11 [1, 9]: 0.98 times |
| CC1=CC(=O)CC(C)(C)[C@@]1(O)/C=C/C(C)=C\C(=O)O.CN(C)C [Example 13, Trimethylamine Salt of (S)-(+)-Abscisic Acid, reference compound] | 84 % of control | 74 % of control | 65 % of control | 54 % of control | 81.2 % of control | 65.5 % of control | 73.6 % of control | 81.7 % of control | 88.2 % of control | 97.0 % of control | 16.59 |  |
| CC1=CC(=O)CC(C)(C)[C@@]1(O)/C=C/C(C)=C\C(=O)O.CCCCN(CCCC)CCCC [Example 14, Tributylamine Salt of (S)-(+)-Abscisic Acid, reference compound] | 82 % of control | 70 % of control | 53 % of control | 40 % of control | 79.5 % of control | 59.7 % of control | 71.3 % of control | 78.8 % of control | 87.4 % of control | 100.3 % of control | 4.34 | Fresh weight (g) 7 days after treatment ([2]; 75 ppm (0.3 mg) (S)-(+)-abscisic acid): 15.7 g; Fresh weight (g) 7 days after treatment ([2]; 250 ppm (1 mg) (S)-(+)-abscisic acid, additives as in label): 15.3 g; Fresh weight (g) 7 days after treatment ([2]; 750 ppm (3 mg) (S)-(+)-abscisic acid): 15.0 g; Fresh weight (g) 7 days after treatment ([2]; 2500 ppm (10 mg) (S)-(+)-abscisic acid): 13.9 g |
| [I-].[K+] [KI, potassium iodide, reference compound] |  |  |  |  |  |  |  |  |  |  |  | Transpiration rate (% of control), 4 Day Average ([1]; 332 ppm KI, no (S)-(+)-abscisic acid, 4-day average): 100.7 % of control; Transpiration rate (% of control), 1 day after treatment [1, 10]: 100.2 % of control; Transpiration rate (% of control), 2 days after treatment [1, 10]: 100.5 % of control; Transpiration rate (% of control), 3 days after treatment [1, 10]: 99.6 % of control; Transpiration rate (% of control), 4 days after treatment [1, 10]: 102.6 % of control |
